Test results reported in patent US20120130146A1, “CONTINUOUS ADMINISTRATION OF CILENGITIDE IN CANCER TREATMENTS” (Merck Patent GmbH, priority 2009, published 2012).
Where “and” joins values, the source holds several entries; their conditions need not be identical. Equal entries are not always repeated.

Assay: Continuous infusion study pharmacokinetics (plasma)
Format: in vivo, human
Settings: for EMD 121974 Concentrations / CL / V / ke / Css: individual subjects; for CL: CL=Rate/Css; for V, Mean / ke, Mean / V: t1/2 = 4 hours; for V: V=CL/ke; for ke: for t1/2 = 4 hours; for Css: mean of 168 h to 506 h values per patient
Experimental: Patients with solid tumors received a continuous infusion of 1 mg/h, 2 mg/h, 4 mg/h, 8 mg/h or 12 mg/h. with a weekly change of infusion bag.
Blood samples were taken on Day 1 (first dose) at pre-dose and 2 h after start of infusion and then weekly just before change of infusion bag and 2 hours thereafter for the first 4 weeks.
The following pharmacokinetic parameters were derived at Merck KGaA. Darmstadt, Germany, by mathematical methods using Kinetica Version 4.1.1.
CL the total body clearance of EMD 121974 from plasma Css plasma concentration at steady state ke elimination rate constant Rate infusion rate t1/2, half life V Volume of distribution
Css, the plasma concentration at steady state, has been estimated by the arithmetic mean of all concentration values from time point 168 h to 506 h per patient.
From Css and t1/2 the PK parameters CL, ke and V were calculated as follows: […]

[1] = Rate 1 mg/h, listed as EMD 121974
[2] = Rate 2 mg/h, listed as EMD 121974
[3] = Rate 4 mg/h, listed as EMD 121974
[4] = Rate 8 mg/h, listed as EMD 121974

CC(C)[C@H]1C(=O)N[C@@H](CCCN=C(N)N)C(=O)NCC(=O)N[C@@H](CC(=O)O)C(=O)N[C@H](Cc2ccccc2)C(=O)N1C [Cilengitide, cyclo-(Arg-Gly-Asp-DPhe-NMeVal)]
Mean values for half-life, clearance, and volume of distribution across dose levels (12 mg/h dose level and below): comparable across dose levels | EMD 121974 Concentrations (Rate 1 mg/h, 0 h (pre-dose)): Undetectable | EMD 121974 Concentrations (Rate 1 mg/h, 2 h, listed as EMD 121974): 42.90 ng/mL and Undetectable | EMD 121974 Concentrations (Rate 1 mg/h, 168 h, listed as EMD 121974): 240.00 ng/mL | EMD 121974 Concentrations (Rate 1 mg/h, 170 h, listed as EMD 121974): 156.00 ng/mL and 10.30 ng/mL | EMD 121974 Concentrations (Rate 1 mg/h, 336 h, listed as EMD 121974): 324.00 ng/mL and 172.00 ng/mL | EMD 121974 Concentrations (Rate 1 mg/h, 338 h, listed as EMD 121974): 321.00 ng/mL and 153.00 ng/mL | CL [1]: 3.84 L/h and 10.17 L/h and 10.93 L/h | V, Mean (Rate 1 mg/h): 48.0 L | ke, Mean (Rate 1 mg/h): 0.173 h⁻¹ | V [1]: 22.2 L and 58.7 L and 63.1 L | ke (Rate 1 mg/h): 0.173 h⁻¹ | Css [1]: 260.3 ng/mL and 98.4 ng/mL and 91.5 ng/mL | EMD 121974 Concentrations (Rate 2 mg/h, 0 h (pre-dose)): Undetectable | EMD 121974 Concentrations (Rate 2 mg/h, 2 h, listed as EMD 121974): 162.00 ng/mL and Undetectable | EMD 121974 Concentrations (Rate 2 mg/h, 168 h, listed as EMD 121974): 189.00 ng/mL and 498.00 ng/mL | EMD 121974 Concentrations (Rate 2 mg/h, 170 h): 316.00 ng/mL | EMD 121974 Concentrations (Rate 2 mg/h, 170 h, listed as EMD 121974): 244.00 ng/mL | EMD 121974 Concentrations (Rate 2 mg/h, 336 h, listed as EMD 121974): 467.00 ng/mL and 523.00 ng/mL | EMD 121974 Concentrations (Rate 2 mg/h, 338 h, listed as EMD 121974): 327.00 ng/mL and 392.00 ng/mL | EMD 121974 Concentrations (Rate 2 mg/h, 504 h, listed as EMD 121974): 268.00 ng/mL and 485.00 ng/mL | EMD 121974 Concentrations (Rate 2 mg/h, 506 h, listed as EMD 121974): 247.00 ng/mL and 427.00 ng/mL | CL [2]: 4.54 L/h | V, Mean (Rate 2 mg/h): 33.0 L | ke, Mean (Rate 2 mg/h): 0.173 h⁻¹ | V [2]: 39.8 L and 26.2 L | ke (Rate 2 mg/h): 0.173 h⁻¹ | Css [2]: 290.3 ng/mL and 440.2 ng/mL | EMD 121974 Concentrations (Rate 4 mg/h, 0 h (pre-dose)): Undetectable | EMD 121974 Concentrations (Rate 4 mg/h, 2 h, listed as EMD 121974): 228.00 ng/mL and 303.00 ng/mL and 454.00 ng/mL | EMD 121974 Concentrations (Rate 4 mg/h, 168 h, listed as EMD 121974): 467.00 ng/mL and 517.00 ng/mL and 894.00 ng/mL | EMD 121974 Concentrations (Rate 4 mg/h, 170 h, listed as EMD 121974): 408.00 ng/mL and 372.00 ng/mL and 843.00 ng/mL and 439.00 ng/mL | EMD 121974 Concentrations (Rate 4 mg/h, 336 h, listed as EMD 121974): 606.00 ng/mL and 847.00 ng/mL | EMD 121974 Concentrations (Rate 4 mg/h, 338 h, listed as EMD 121974): 283.00 ng/mL and 644.00 ng/mL and 711.00 ng/mL and 597.00 ng/mL | EMD 121974 Concentrations (Rate 4 mg/h, 504 h, listed as EMD 121974): 1170.00 ng/mL and 524.00 ng/mL and 482.00 ng/mL and 485.00 ng/mL | EMD 121974 Concentrations (Rate 4 mg/h, 506 h, listed as EMD 121974): 776.00 ng/mL and 649.00 ng/mL and 618.00 ng/mL | CL [3]: 7.51 L/h and 5.96 L/h and 6.19 L/h | V, Mean (Rate 4 mg/h): 37.7 L | ke, Mean (Rate 4 mg/h): 0.173 h⁻¹ | V [3]: 37.2 L and 43.3 L and 34.4 L and 35.7 L | ke (Rate 4 mg/h): 0.173 h⁻¹ | Css [3]: 620.8 ng/mL and 532.6 ng/mL and 671.3 ng/mL and 646.7 ng/mL | EMD 121974 Concentrations (Rate 8 mg/h, 0 h (pre-dose)): Undetectable | EMD 121974 Concentrations (Rate 8 mg/h, 2 h, listed as EMD 121974): 603.00 ng/mL and 445.00 ng/mL and 462.00 ng/mL | EMD 121974 Concentrations (Rate 8 mg/h, 168 h, listed as EMD 121974): 1310.00 ng/mL and 881.00 ng/mL and 2190.00 ng/mL | EMD 121974 Concentrations (Rate 8 mg/h, 170 h, listed as EMD 121974): 862.00 ng/mL and 958.00 ng/mL and 1820.00 ng/mL | EMD 121974 Concentrations (Rate 8 mg/h, 336 h): 525.00 ng/mL | EMD 121974 Concentrations (Rate 8 mg/h, 338 h, listed as EMD 121974): 424.00 ng/mL and 1520.00 ng/mL | EMD 121974 Concentrations (Rate 8 mg/h, 504 h, listed as EMD 121974): 1610.00 ng/mL and 1440.00 ng/mL and 1830.00 ng/mL | EMD 121974 Concentrations (Rate 8 mg/h, 506 h, listed as EMD 121974): 1590.00 ng/mL and 771.00 ng/mL and 1500.00 ng/mL | CL [4]: 5.96 L/h and 9.60 L/h and 4.51 L/h | V, Mean (Rate 8 mg/h): 38.6 L | ke, Mean (Rate 8 mg/h): 0.173 h⁻¹ | V [4]: 34.4 L and 55.4 L and 26.1 L | ke (Rate 8 mg/h): 0.173 h⁻¹ | Css [4]: 1343.0 ng/mL and 833.2 ng/mL and 1772.0 ng/mL | EMD 121974 Concentrations (Rate 12 mg/h, 0 h (pre-dose)): Undetectable | EMD 121974 Concentrations (Rate 12 mg/h, 2 h, listed as EMD 121974): 722.00 ng/mL and 303.00 ng/mL and 472.00 ng/mL | EMD 121974 Concentrations (Rate 12 mg/h, 168 h, listed as EMD 121974): 777.00 ng/mL and 2550.00 ng/mL and 1980.00 ng/mL | EMD 121974 Concentrations (Rate 12 mg/h, 170 h, listed as EMD 121974): 1130.00 ng/mL and 1770.00 ng/mL and 1340.00 ng/mL
